Experimental data taken from ChEMBL document CHEMBL1201862, “PubChem BioAssay data set” (2004).
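Exposure lasted 48 hours, with cells grown in 96-well plates and compounds tested at five concentrations. The concentration for 50% growth inhibition is given as GI50.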 Active and inactive are the calls of the source. Rule as the data show it: active = GI50 up to about 1.1 µM and inactive = higher.

Experiments:
Experiment in all cases: NCI-60 cell line screen, 48 h
UACC-257 = test system: UACC-257
LOX IMVI = test system: LOX IMVI
SW-620 = test system: SW-620
PC-3 = test system: PC-3
NCI-H226 = test system: NCI-H226
SK-MEL-28 = test system: SK-MEL-28
RPMI-8226 = test system: RPMI-8226
SNB-19 = test system: SNB-19
OVCAR-8 = test system: OVCAR-8
SK-MEL-2 = test system: SK-MEL-2
IGROV-1 = test system: IGROV-1
KM12 = test system: KM12
M14 = test system: M14
NCI-H522 = test system: NCI-H522
MOLT-4 = test system: MOLT-4
NCI-H23 = test system: NCI-H23
K562 = test system: K562
SF-539 = test system: SF-539
Malme-3M = test system: Malme-3M
SR = test system: SR

| SMILES | GI50 (UACC-257) | GI50 (LOX IMVI) | GI50 (SW-620) | GI50 (PC-3) | GI50 (NCI-H226) | GI50 (SK-MEL-28) | GI50 (RPMI-8226) | GI50 (SNB-19) | GI50 (OVCAR-8) | GI50 (SK-MEL-2) | GI50 (IGROV-1) | GI50 (KM12) | GI50 (M14) | GI50 (NCI-H522) | GI50 (MOLT-4) | GI50 (NCI-H23) | GI50 (K562) | GI50 (SF-539) | GI50 (Malme-3M) | GI50 (SR) |
| --- | --- | --- | --- | --- | --- | --- | --- | --- | --- | --- | --- | --- | --- | --- | --- | --- | --- | --- | --- | --- |
| Clc1ccc(/N=C2\c3ccccc3CN2c2ccc(Cl)cc2)cc1 | > 100 µM (inactive) | > 100 µM (inactive) | > 100 µM (inactive) | 74.3 µM (inactive) | > 100 µM (inactive) | 64 µM (inactive) | 7.69 µM (inactive) | > 100 µM (inactive) | > 100 µM (inactive) | 4.68 µM (inactive) | 39.8 µM (inactive) | 77.8 µM (inactive) | 31.7 µM (inactive) | 63.2 µM (inactive) | > 100 µM (inactive) | 89.5 µM (inactive) | 0.119 µM (active) | 30.2 µM (inactive) | – | – |
| C=CCc1oc(C)nc1CCCC | > 100 µM (inactive) | > 100 µM (inactive) | > 100 µM (inactive) | > 100 µM (inactive) | > 100 µM (inactive) | > 100 µM (inactive) | – | 49.3 µM (inactive) | > 100 µM (inactive) | – | > 100 µM (inactive) | > 100 µM (inactive) | > 100 µM (inactive) | > 100 µM (inactive) | > 100 µM (inactive) | > 100 µM (inactive) | > 100 µM (inactive) | > 100 µM (inactive) | > 100 µM (inactive) | – |
| Oc1ccc2ccccc2c1/N=N/c1ccsc1 | > 100 µM (inactive) | > 100 µM (inactive) | > 100 µM (inactive) | – | > 100 µM (inactive) | > 100 µM (inactive) | > 100 µM (inactive) | > 100 µM (inactive) | > 100 µM (inactive) | > 100 µM (inactive) | > 100 µM (inactive) | 24.9 µM (inactive) | > 100 µM (inactive) | > 100 µM (inactive) | > 100 µM (inactive) | > 100 µM (inactive) | > 100 µM (inactive) | > 100 µM (inactive) | > 100 µM (inactive) | > 100 µM (inactive) |
| O=S(=O)(O)c1ccc(/N=N/c2ccc(/N=N/c3c(O)c(S(=O)(=O)O)cc4cc(S(=O)(=O)O)ccc34)cc2)cc1 | > 100 µM (inactive) | – | > 100 µM (inactive) | > 100 µM (inactive) | > 100 µM (inactive) | > 100 µM (inactive) | > 100 µM (inactive) | > 100 µM (inactive) | > 100 µM (inactive) | > 100 µM (inactive) | > 100 µM (inactive) | > 100 µM (inactive) | > 100 µM (inactive) | > 100 µM (inactive) | > 100 µM (inactive) | > 100 µM (inactive) | > 100 µM (inactive) | > 100 µM (inactive) | > 100 µM (inactive) | – |
| C=CCNC(NCC=C)=C(C(Cl)=C(Cl)Cl)[N+](=O)[O-] | > 100 µM (inactive) | – | 22.9 µM (inactive) | 51.2 µM (inactive) | > 100 µM (inactive) | 79.3 µM (inactive) | 49.1 µM (inactive) | > 100 µM (inactive) | 16.6 µM (inactive) | > 100 µM (inactive) | – | 65.5 µM (inactive) | 31.9 µM (inactive) | – | 31.5 µM (inactive) | 34.1 µM (inactive) | 16.7 µM (inactive) | 21.3 µM (inactive) | 16.4 µM (inactive) | – |
| O=c1c(C(c2ccc([N+](=O)[O-])cc2)c2c(O)oc3ccccc3c2=O)c(O)oc2ccccc12 | > 100 µM (inactive) | > 100 µM (inactive) | > 100 µM (inactive) | > 100 µM (inactive) | > 100 µM (inactive) | > 100 µM (inactive) | 1 µM (active) | > 100 µM (inactive) | > 100 µM (inactive) | > 100 µM (inactive) | > 100 µM (inactive) | > 100 µM (inactive) | – | > 100 µM (inactive) | > 100 µM (inactive) | > 100 µM (inactive) | 10 µM (inactive) | – | > 100 µM (inactive) | – |
